Measured values: patent publication US20230276703A1, “ORGANIC SEMICONDUCTOR MATERIAL” (The University of Tokyo, priority 2020, published 2023)

Assay: Solvent solubility evaluation in o-dichlorobenzene
Format: physicochemical
Details: heated at 100° C., visual confirmation of dissolution, (w/Vd)×100
Method: Approximately 1 mg of each compound (accurate weight was w (mg)) was weighed in a sample tube, and 20 μL of o-dichlorobenzene was added thereto by using a micropipette. The sample tube was capped and heated at 100° C. by a hot plate. Whether or not the compound was dissolved was visually confirmed. When the compound was not dissolved, the operation of adding o-dichlorobenzene in an amount of 20 μL per addition until the compound was dissolved and heating to 100° C. was repeated.
The solubility (wt. %) of the compound was calculated based on the following formula. Note that V in the formula is a volume (μL) of the o-dichlorobenzene added to dissolve the compound, and d is a density (g/cm^3) of the o-dichlorobenzene.
Solubility (%)=(w/Vd)×100

| Compound | Solubility (%) |
| --- | --- |
| CCCCCCCCN1C(=O)c2cnc3c4ccc5c6c(cnc(c7ccc1c2c73)c64)C(=O)N5CCCCCCCC [Compound (II)] | 0.58% |
| CCCCCCCCN1C(=S)c2cnc3c4ccc5c6c(cnc(c7ccc1c2c73)c64)C(=S)N5CCCCCCCC [Compound (III)] | 0.49% |
| O=C1c2ccc3c4ncc5c6c(ccc(c7ncc(c2c37)C(=O)N1CCc1ccccc1)c64)C(=O)N(CCc1ccccc1)C5=O [Compound (IX), reference compound] | <0.0007% |
| CCCN1C(=O)c2cnc3c4c(C#N)cc5c6c(cnc(c7c(C#N)cc1c2c37)c64)C(=O)N5CCC [Compound (VI)] | 0.027% |
| CCCCCCN1C(=O)c2cnc3c4c(C#N)cc5c6c(cnc(c7c(C#N)cc1c2c37)c64)C(=O)N5CCCCCC [Compound (VIII)] | 0.52% |
| CCCCCCCCN1C(=O)c2ccc3c4ncc5c6c(ccc(c7ncc(c2c37)C1=O)c64)C(=O)N(CCCCCCCC)C5=O [Compound (X), reference compound] | 0.019% |
